For one data set, the system named is SW620 xenograft. Nature of the data set: Mouse SW620 xenograft model. It is filed as in vivo. As for the experimental part:
FIG. 7A is a graph showing inhibition of tumor growth by CL16 in mouse HCT116 xenografts through intraperitoneal injection at 10 mg/kg (n=6 per group). FIG. 7B is a graph showing inhibition of tumor growth by CL16 in mouse HT29 xenografts through intraperitoneal injection at 10 mg/kg (n=7). FIG. 7C is a graph showing the body weight of mice with HT29 xenografts throughout the treatment with CL16. FIG. 7D is a graph showing inhibition of tumor growth by CL16 in mouse SW620 xenografts through intraperitoneal injection at 10 mg/kg (n=6 per group). FIG. 7E is a bar graph showing the tumor weight of harvested tumors from the treated mice with SW620 xenografts. FIG. 7F is a graph showing the body weight of mice with SW620 xenografts throughout the treatment with CL16. Statistical analysis using a two-tailed Student's t-test. *P<0.05.
7-week-old mice with weight around 20 g were inoculated subcutaneously with HCT116 (2×10^6 cells per mouse) or HT29 (3×10^6 cells per mouse) cells, in serum-free RMPI or Matrigel in PBS respectively. […] The tumor volume and body weight of the nude mice were measured throughout the treatment. The tumor volume was calculated by the equation: Volume (mm^3)=1×w^2/2, where 1 and w were the length and width of the tumor. At the end of the treatment, the mice were sacrificed and the tumor weight was measured. […]

In the next data set the test system is SL4 cells. Nature of the data set: MTT assay on mouse CRC cells SL4. It is filed as cell-based. Conditions: complete medium 48 h. The protocol: FIG. 13A is a graph showing the cell viability, which was examined by MTT assay. SL4 cells were treated with solvent vehicle or CL16 in complete medium for 48 h.
Antitumor effects of CL16 in an immunocompetent, orthotopic mouse CRC model, which was established by the inoculation of mouse CRC cells, SL4, intracecally were examined (FIG. 20). […] Immunohistochemistry staining of CD3, CD4, CD8, Ki67 was conducted, with cleaved caspase-3 and VEGFR2 on tumor tissues from the vehicle- or CL16-treated mice.
Background: Formazan colour is commonly taken as a measure of viable cells.

In another data set the target is Cdc42 (Homo sapiens, UniProt P60953). Nature of the data set: Gel-based competitive ABPP, second screening on Cdc42. It is filed as binding. The protocol: Recombinant human RhoA (0.1 μg; ab101594) was pretreated with cysteine-reactive compounds or DMSO for 1 hour at room temperature, followed by incubation with iodoacetamide-rhodamine (IA-Rh; 1 μM) for 1 hour at room temperature. The reaction was then quenched by boiling in sampling buffer. Samples were subjected to SDS-PAGE to separate proteins bands. In-gel fluorescence intensity was measured with a Chemidoc using setting for Rhodamine. Gel was subsequently stained with silver stain (Pierce) for visualization of protein content and covalent modification. Band intensity was quantified using ImageJ.
Chain of Cdc42 (P60953 whole entry): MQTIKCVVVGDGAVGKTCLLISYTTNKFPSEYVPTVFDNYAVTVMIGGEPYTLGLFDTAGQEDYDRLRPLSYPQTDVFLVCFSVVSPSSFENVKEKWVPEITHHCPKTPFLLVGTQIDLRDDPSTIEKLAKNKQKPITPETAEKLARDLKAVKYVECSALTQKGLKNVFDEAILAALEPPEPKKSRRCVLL
CL16 was identified for its strong and specific binding with RhoA in covalent ligand screening experiment by ABPP. ABPP is known as a powerful platform for covalent ligand screening, particularly for the identification of lead compounds targeting new hotspots for therapy. Competitive gel-based activity-based protein profiling (ABPP) experiment was performed on purified RhoA protein for screening its interactions with a library of cysteine-reactive covalent ligands with acrylamide or chloroacetamide warheads. RhoA protein for the first screening and on Rac1 and Cdc42 for the second screening to identify lead compounds with specific binding onto RhoA Cys16. […] The reaction mixture was then resolved by SDS-PAGE and in-gel fluorescence was imaged (FIG. 1A). […]

The target of the next data set is RhoA (Homo sapiens, UniProt P61586). Nature of the data set: Fluorescence-based assay of Dbs-mediated GTP binding onto RhoA. In kind it is biochemical. Conditions: increasing concentrations of CL16.
Chain of RhoA (P61586 whole entry): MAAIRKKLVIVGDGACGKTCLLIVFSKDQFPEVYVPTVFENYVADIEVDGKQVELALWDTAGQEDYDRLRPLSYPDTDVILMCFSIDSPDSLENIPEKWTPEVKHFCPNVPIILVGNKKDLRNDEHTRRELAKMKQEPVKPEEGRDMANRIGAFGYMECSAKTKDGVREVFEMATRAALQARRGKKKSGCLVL
Another data set deals with Rac1 (Homo sapiens, UniProt P63000). Nature of the data set: Rac1-GTP PAK-PBD pull-down in HT29 cells. It is filed as cell-based. Details: endogenous in cells; host or cells: HT29. Conditions: HT29, complete medium 24 h. The source says:
The procedure is similar to that for RhoA-GTP assay, except that Rac1-GTP and Cdc42-GTP in CRC cells were first enriched by Rac1 Pull-Down Activation Assay Biochem Kit (Cytoskeleton #BK035) instead of using the RhoA kit. The enriched Rac1-GTP and Cdc42-GTP were then immunoblotted by Rac1/2/3 antibody (CST #2465) and Cdc42 antibody (CST #2462) respectively.
GTP loading onto RhoA is critical for the protein activation and mediating downstream signals. In view of the inhibitions of GDP-to-GTP exchange of RhoA by CL16 in vitro as discussed above, effects of CL16 on RhoA biology in colorectal cancer cells were examined. In the serum starvation-re-stimulation experiment, HCT116 cells were grown in serum-free medium with CL16, Rhosin or solvent control for 24 h, followed by stimulation with 10% FBS for 10 min. The cells were then lysed and the RhoA activity was assayed by the level of RhoA-GTP, which is the active form of RhoA. […] HT29 cells were incubated with solvent vehicle, CL16 or Rhosin in complete medium for 24 h. The cells were then washed, lysed and subjected to rhotekin pull-down for blotting RhoA-GTP, or PAK-PBD pull-down for blotting Rac1-GTP and Cdc42-GTP. Confocal fluorescence images from HCT116 and HT29 cells expressing FRET RhoA-biosensor in the serum starvation-restimulation experiment were taken.

As to `O=C(CCl)N1N=C(c2cc3ccccc3o2)CC1c1ccco1` (stereo not drawn) [CL16], the “body weight, treated vs untreated” value in the data set with SW620 xenograft (SW620 xenografts, FIG. 7F) is on record as “no observable difference”. The “tumor growth vs vehicle control” value with SW620 xenograft (nude mice, 10 mg/kg intraperitoneal) was “significantly inhibited tumor growth”. Further, in the data set on SL4 cells, the “viability of SL4” value is given as “significantly decreased the viability”. Besides, the “binding with Cdc42” value on Cdc42 was “no observable binding”. Also, the “kinetics of Dbs-mediated GTP binding onto RhoA” value on RhoA is “significant decrease in the kinetics”. Further, at Rac1, the “Rac1 activity (Rac1-GTP)” value was “no significant changes”.

For the origin of these results see US20250073209A1, “COVALENT TARGETING OF RhoA FOR CANCER THERAPY” (The University of Hong Kong, priority 2023, published 2025).
